The test system of series [1] is U-87 human glioblastoma cells. Description: Delivery of siRNA to U-87 tumor cells (cell cy3-fluorescence). Conditions: U-87 cells, 40 pmoles siRNA, 24 hours after sonication, MI>1.3. The series is classed as cell-based. As to the method:
(§1) MATBIII rat mammary carcinoma and U-87 human glioblastoma cells were cultured in McCoy's 5A Medium (modified) (1×) (Invitrogen, Carlsbad, Calif., USA) and Eagle's Minimum Essential Medium (EMEM) (ATCC, Manassas, Va.) respectively. Both the media solutions were supplemented with 10% heat deactivated fetal bovine serum (FBS) (Fisher Scientific, Springfield, N.J.) and 1% penicillin-streptomycin (Sigma Aldrich, St Louis, Mo.). The cells were maintained at 37° C. in a humidified atmosphere with 5% CO2.
(§2) MATB-III and U-87 cells were grown in 10 mL capacity Opticell units (Nalge Nunc International, Rochester, N.Y.) to 90% confluence. The media in OptiCell was replaced with 10 mL fresh media containing 40 pmoles of either cy3-siRNA or cholesterol-siRNA. […] After incubation, the cells were imaged using a fluorescence microscope (Zeiss Axio Imager.Z1, Carl Zeiss). […] In the region of interest (ROI) in the fluorescent images, cell fluorescence was measured and the mean values of cell fluorescence were calculated. ImageJ was used to process the images and calculate fluorescence intensities.
(§3) The data are reported as mean+1.0 standard error (SE) for N=4. The statistical significance of the differences between the groups was evaluated using two-sample t-test and the statistical analyses were carried out using Minitab® 12 (Minitab Inc, State College, Pa. USA).

The target of series [2] is native HSA (Homo sapiens, UniProt P02768).
Description: Optison™ (GE Healthcare, Chalfont St. Giles, United Kingdom, 10 mg/ml albumin) was centrifuged; the top layer was discarded and the excess albumin solution in the bottom was used for the binding studies. Lyophilized human serum albumin (HSA) powder (Sigma Aldrich, St. Louis Mo.) was dissolved in 1× phosphate buffered saline (PBS) to make a stock solution of 10 mg/mL. Both Optison and native albumin solution dilutions were prepared with 1× PBS. Denatured HSA solution was prepared by heating native ESA solution to 80° C. for 20 minutes.
The stock solutions of cy3-siRNA and cy3-siRNA-cholesterol, 20 μM were prepared in RNAse free water and stored at −20° C. […]
All the reactions were loaded onto precast 6% nondenaturing polyacrylamide gels (Invitrogen, Carlsbad, Calif., USA). […] The gels containing either DNA, protein or both were imaged for cy3 fluorescence using a typhoon scanner (Typhoon™9410, GE Healthcare).
The fluorescence of Cy3 attached to siRNA can be visualized as distinct siRNA bands on the gel.
The fluorescence intensity of siRNA in each lane was estimated manually by drawing a box around the bands. […] Fluorescence intensities of bound siRNA over a wide range of albumin concentrations were calculated. Relative fluorescence, R was calculated as: R=(Fbound-Ffree)/Ffree (1) […]
In series [3] the target is T1, Optison (Homo sapiens, UniProt P02768).
T1 construct: purchased GE Healthcare, Chalfont St. Giles, United Kingdom
Description: Gel shift assay, binding of siRNA to Optison albumin solution. A general note: Mobility shift assays separate free from complexed probe on a gel.

The test system of series [4] is denatured HSA. Kind of series: Gel shift assay, binding of siRNA to denatured HSA. On the set-up: species or system human. Conditions: same amount of denatured HSA, compared with native HSA and Optison. The source says:
The reaction buffer was 1× PBS, pH 7.4.

Series [5] concerns MATBIII rat mammary carcinoma cells. Kind of series: Delivery of siRNA to MATBIII cells, Optison/ultrasound versus RNAifect. Conditions: 24 hours. In kind it is cell-based. As to the method: as §1, §2, §3

{CholTEG} = cholesteryl-TEG lipid

T1 sequence (P02768 25-609): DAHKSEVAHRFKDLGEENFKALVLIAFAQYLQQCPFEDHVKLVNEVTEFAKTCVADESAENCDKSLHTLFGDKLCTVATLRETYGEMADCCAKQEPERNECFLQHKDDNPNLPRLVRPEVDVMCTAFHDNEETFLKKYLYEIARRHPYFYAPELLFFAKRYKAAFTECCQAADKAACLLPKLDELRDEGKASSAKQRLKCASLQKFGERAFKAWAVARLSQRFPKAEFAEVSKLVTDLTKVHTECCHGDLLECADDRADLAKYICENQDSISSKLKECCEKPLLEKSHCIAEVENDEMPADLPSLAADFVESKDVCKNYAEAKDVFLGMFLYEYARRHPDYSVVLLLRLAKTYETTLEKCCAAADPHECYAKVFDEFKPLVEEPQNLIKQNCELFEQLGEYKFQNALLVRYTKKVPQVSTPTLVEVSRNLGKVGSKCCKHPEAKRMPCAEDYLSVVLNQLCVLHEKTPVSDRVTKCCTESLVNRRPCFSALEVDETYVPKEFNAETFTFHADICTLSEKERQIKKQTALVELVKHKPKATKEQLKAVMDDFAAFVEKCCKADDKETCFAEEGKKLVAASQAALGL
Sequence of native HSA (P02768 25-609): as above

Usually Kd stands for the constant that tells how readily two partners part at equilibrium. For the substance “cholesterol-siRNA: siRNA for VEGF silencing, 5'-Cy3 labelled, cholesteryl TEG lipid at 3' of sense strand (SEQ ID NO: 1 and 2) (sense GCAUUUGUUUGUCCAAGAUUU; antisense AAAUCUUGGACAAACAAAUGC; sense: 3' {CholTEG}, sugars by position and backbone not given here; antisense: chemistry not given here; 5'-Cy3 label, further chemistry not fully specified)”, the “Increase in average cell fluorescence, Optison/ultrasound treated versus untreated cells” value in series [1] came out at 53%. Moreover, the Kd in series [2] turned out to be 6.4 µM; in series [3] (binding to Optison, gel shift, non-linear fit, read-out: Dissociation constant, kd), 7.16 µM. Also, the “Binding to native HSA in gel shift assay” value in series [2] (0 to 50 pmoles albumin) is on record as “bound”. In addition, the “Binding to Optison solution in gel shift assay” value in series [3] (0 to 50 pmoles albumin) is recorded as “bound”. Moreover, in series [3] (low albumin concentration, 0 to 15 μM), the “Amount bound to Optison solution compared with native HSA” value is “higher”. Moreover, the “Binding to denatured HSA in gel shift assay” value in series [4] was “significantly decreased”. Further, the “Average cell fluorescence, Optison/ultrasound delivery versus RNAifect” value in series [5] is reported as “no significant difference”.

The record behind these values is patent US11007212B2, “Microbubble complexes and methods of use” (General Electric Company, priority 2011, dated 2021).
